{
  "source": "the NIST ThermoML archive (doi:10.1021/acs.jced.7b00005)",
  "settings": "Liquid, Ebulliometric method (Recirculating still)",
  "note": "± gives the expanded uncertainty stated by the source.",
  "data": [
    {"smiles": "CC#N", "note": "[acetonitrile]", "values": [
      {"measurement": "vapor or sublimation pressure", "setting": "295.25 K", "result": "10 ± 0.3", "unit": "kPa"},
      {"measurement": "vapor or sublimation pressure", "setting": "295.4 K", "result": "10 ± 0.3", "unit": "kPa"}
    ]}
  ]
}
